Assay in all cases: NCI anticancer screen, dose series, 48 h
Experiment [1] relates to DU-145 prostate.
Experiment [2] has as its system EKVX NSCLC.
For experiment [3], the system named is HCT-15 colon.
In experiment [4] the test system is HOP-62 NSCLC.
The subject of experiment [5] is NCI-H226 lung.
Experiment [6] relates to RXF 393 renal.
For experiment [7], the system named is SF-295 CNS.
Experiment [8] has as its system SK-MEL-2 melanoma.
For experiment [9], the system named is SN12C renal.
For experiment [10], the system named is SW-620 colon.

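Values below derive from 48-hour exposures of cells grown in 96-well plates, with endpoints linearly interpolated between the two concentrations bracketing the appropriate inhibition level. The concentration for 50% growth inhibition is given as GI50. At the TGI there is no net growth.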

In the case of `NCCN1C(=O)c2ccccc2C1(O)c1ccc(Cl)cc1` (configuration not stated), the TGI is more than 100 µM in [1]; 52.3 µM in experiment [2]; more than 100 µM in experiment [3]; 89.8 µM in [4]; more than 100 µM in [5]; 55.8 µM in experiment [6]. Further, the TGI is 55.3 µM in [7], 30.8 µM in [8], more than 100 µM in experiment [9] and 36.6 µM in experiment [10].
Take `Cc1ccc(C(=O)N=Nc2c(O)[nH]c3ccc(Cl)cc23)cc1`: the GI50 in [1] was 46900 nM; in experiment [2] it was more than 50 µM; in experiment [3] it was 18 µM; in experiment [5], 7.4 µM; in experiment [6] it was 13.7 µM; in experiment [7] it was 44500 nM. Moreover, the GI50 in experiment [8] was more than 50 µM; in experiment [9], 8700 nM; in experiment [10] it was 11400 nM. Moreover, the TGI was more than 50 µM in [1]; more than 50 µM in [2]; more than 50 µM in experiment [3]; 24.6 µM in [5]; more than 50 µM in [6]; more than 50 µM in experiment [7]. Also, the TGI in experiment [8] is more than 50 µM; in [9], 17.8 µM; in experiment [10], 41.4 µM.
In the case of `CCCCN1CCN(c2ccc3nc(-c4ccc5nc(-c6ccc(OCC)c(OCC)c6)[nH]c5c4)[nH]c3c2)CC1`, the GI50 in [1] is 1000 nM; in experiment [3], 1.56 µM; in experiment [5], 1.29 µM; in experiment [10] it was 474 nM. Also, the TGI in experiment [1] amounted to 2.21 µM; in experiment [3], 3.32 µM; in experiment [5], 3.95 µM; in experiment [10] it was 1.79 µM.
In the case of `COC(=O)/C(=C\c1c(-c2ccccc2)[nH]c2ccccc12)S(C)(=O)=O`, the GI50 was 2480 nM in experiment [1]; 8.92 µM in experiment [2]; 2.35 µM in experiment [3]; 10.7 µM in [4]; 4.99 µM in experiment [5]; 7.23 µM in experiment [6]. The GI50 was 3130 nM in [7], 11.8 µM in experiment [8], 3140 nM in [9] and 2920 nM in experiment [10]. For the same compound, the TGI in experiment [1] is 6.11 µM; in experiment [2], more than 100 µM; in experiment [3], 12.1 µM; in experiment [4] it was 36.7 µM; in experiment [5], 64.5 µM; in experiment [6] it was 68.2 µM. Further, the TGI in [7] turned out to be 19.9 µM; in experiment [8] it was 28.4 µM; in experiment [9], 32 µM; in experiment [10], 15.9 µM.
With `CNC(=O)c1cc2c(Oc3ccc(NC(=S)NC(=O)Cc4ccccc4)cc3F)ccnc2cc1OC`, the GI50 is more than 31400 nM in experiment [1]; more than 100 µM in experiment [2]; 4.7 µM in experiment [3]; 22.6 µM in experiment [4]; 5.36 µM in [5]; 2.02 µM in experiment [6]. Further, the GI50 was 196 nM in experiment [7], more than 29.9 µM in experiment [8], 2180 nM in experiment [9] and more than 100000 nM in [10]. For the same compound, the TGI in experiment [1] was more than 100 µM; in experiment [2] it was more than 100 µM; in [3], more than 100 µM; in experiment [4] it was more than 100 µM; in experiment [5] it was more than 100 µM; in experiment [6], 6.55 µM. The TGI in experiment [7], in experiment [8], in [9] and in experiment [10] was more than 100 µM throughout.
Regarding `CC1(C)N=C(N)N=C(N)N1c1ccc(Cl)c(Cl)c1`, the GI50 is 523 nM in [1]; 1.97 µM in experiment [2]; 1.37 µM in experiment [3]; 0.533 µM in experiment [4]; 29.1 µM in [6]; 304 nM in [7]. Also, the GI50 was more than 100 µM in experiment [8], 694 nM in [9] and 96.6 nM in [10]. For the same compound, the TGI in experiment [1], in experiment [2], in experiment [3], in experiment [4], in experiment [5] and in [6] was more than 100 µM throughout. The TGI in experiment [8], in experiment [9] and in [10] was more than 100 µM each time.
Turning to `Cc1cc2c(=O)[nH]c(N)nc2nc1C`, the TGI in experiment [1], in experiment [2], in [3], in experiment [4], in experiment [5] and in experiment [6] was more than 100 µM each time. For the same compound, the TGI in [7], in [8], in experiment [9] and in [10] was more than 100 µM each time.
As to `Cc1cc2c(cc1C)[n+](Cc1ccc3ccccc3n1)cn2Cc1ccc2ccccc2n1`, the GI50 in [1] is 1600 nM; in experiment [2], 2.29 µM; in [3] it was 3.04 µM; in experiment [4] it was 1.27 µM; in experiment [5] it was 1.59 µM; in [6] it was 1.17 µM. For the same compound, the GI50 was 1120 nM in experiment [7], 1.57 µM in [8], 792 nM in [9] and 1070 nM in [10]. Also, the TGI in [1] was determined as 6.56 µM; in experiment [2] it was 11.1 µM; in [3], 11.4 µM; in experiment [4], 3.13 µM; in [5] it was 4.01 µM; in experiment [6], 2.45 µM. The TGI in [7] is 2.63 µM; in experiment [8] it was 3.12 µM; in experiment [9], 2.17 µM; in [10], 2.92 µM.
For `N=C(N)SCc1ccc([N+](=O)[O-])cc1[N+](=O)[O-]`, the GI50 in experiment [1] is 2250 nM; in [2] it was 11 µM; in experiment [3], 5.01 µM; in [4], 33.9 µM; in experiment [5], 25.3 µM; in experiment [6], 1.38 µM. Also, the GI50 in experiment [7] is 31300 nM; in experiment [8], 4.5 µM; in experiment [9] it was 12100 nM. Moreover, the TGI worked out at 9.95 µM in experiment [1]; 25.8 µM in experiment [2]; 19.4 µM in experiment [3]; 79.1 µM in experiment [4]; 62.4 µM in [5]; 4.13 µM in experiment [6]. Moreover, the values for the TGI in experiment [7], in [8] and in [9] were more than 100 µM, 16.6 µM and 27.2 µM, respectively.
